Measured values taken from patent US11766429B1, “Nicotinic receptor antagonists and pioglitazone as therapeutic agents for Covid-19” (priority 2020, dated 2023).

Tests used:
[1] = in vivo; cited from earlier work
[2] = system: inflammatory cytokines IL-6, IL-1β, and TNFα; test: SARS-CoV-2 induced cytokine gene expression in Calu3 cells; format: cell-based; details: 0.1 MOI SARS CoV2, single agent: PG 20 μM, Mec 5 μM or Mec iso 5 μM, 48 hrs
[3] = system: mouse hepatitis virus strain 4 (MHV4); test: MHV4 replication in infected IMG cells (GFP expression, N gene qPCR); format: cell-based; details: 2 MOI MHV4, mecamylamine 1, 10 or 40 μM, 48 hours
[4] = system: human α3β4, α4β2, α3β2 and α7 receptors; details: cited from earlier work; for selectivity between nAChR types: neuronal vs muscle-type nAChRs; for mode of inhibition: neuronal nAChRs
[5] = higher doses (30-90 mg/day); cited from earlier work
[6] = system: inflammatory cytokine gene expression (IL1-β, IL-6, TNF-α); test: Inflammatory cytokine gene expression in MHV4 infected IMG cells; format: cell-based; details: 2 MOI MHV4, mecamylamine 1, 10 or 40 μM, 48 hours

Row | SMILES | blood brain barrier penetration [1] | inflammatory cytokines IL-6, IL-1β, and TNFα [2] | GFP expressing cells [3] | MHV-4 N-gene expression [3] | selectivity between nAChR types [4] | side effects [5] | cytokine gene transcription (qPCR) [6] | mode of inhibition [4]
1 | CNC1(C)C2CCC(C2)C1(C)C (racemic) [mecamylamine] | ability to cross the blood brain barrier | significant decrease | dose-dependent decrease | dose-dependent decrease | selective for neuronal nAChRs over muscle-type nAChRs | causes unfavorable side effects | dose-dependent decrease | 
2 | CNC1(C)C2CCC(C2)C1(C)C (stereo not drawn) [R-(−)-mecamylamine] |  |  |  |  | selective for neuronal nAChRs over muscle-type nAChRs |  |  | noncompetitive inhibitors
3 | CN[C@@]1(C)[C@@H]2CC[C@@H](C2)C1(C)C [S-(+)-mecamylamine] |  |  |  |  | selective for neuronal nAChRs over muscle-type nAChRs |  |  | noncompetitive inhibitors
